# ChEMBL document CHEMBL1154401, “Therapeutic effect of nisin Z on subclinical mastitis in lactating cows” (Antimicrob Agents Chemother, 2007)
# Columns and labels:
# Staphylococcus aureus [1] = assay: Sensitivity of Staphylococcus aureus isolated from lactating Holstein bovine subclinical mastitis model at 30 ug/disk after 20 hrs; format: functional; conditions: read-out: IZ
# Staphylococcus aureus [2] = assay: Resistance of Staphylococcus aureus isolated from lactating Holstein bovine subclinical mastitis model at 30 ug/disk after 20 hrs; format: functional
# Bos taurus [3] = assay: Toxicity in Holstein bovine assessed as visible local reaction at 1.25X10'6 IU, intramammary dosed in left hindquarter of mammary gland after morning milking by irritancy test; format: organism-based; conditions: cattle, in vivo, other
# Bos taurus [4] = assay: Toxicity in Holstein bovine assessed as decreased milk yeild with clots and flakes in milk at 5X10'6 IU, intramammary dosed in right forequarter of mammary gland after morning milking by irritancy test; format: organism-based; conditions: cattle, in vivo, other
# [5] = Drug level in milk of lactating bovine clinical mastitis model at 2.5X10'6 IU, intramammary dosed twice daily for 3 days measured after 12 hrs; format: ADME, organism-based, Bos taurus; conditions: cattle, in vivo, other
# Bos taurus [6] = assay: Toxicity in Holstein bovine assessed as decreased milk yeild at 1.25X10'6 IU, intramammary dosed in left hindquarter of mammary gland of mammary gland after morning milking by irritancy test; format: organism-based; conditions: cattle, in vivo, other
# [7] = Drug level in milk of lactating bovine subclinical mastitis model at 2.5X10'6 IU after 48 hrs; format: ADME, Bos taurus; conditions: cattle
# Bos taurus [8] = assay: Toxicity in Holstein bovine assessed as visible local reaction at 5X10'6 IU, intramammary dosed in right forequarter of mammary gland after morning milking after 24 hrs by irritancy test; format: organism-based; conditions: cattle, in vivo, other
# [9] = Drug level in milk of lactating Holstein bovine mastitis model at 2.5X10'6 IU, intramammary administered once daily for 3 days measured after 48 hrs; format: ADME, Bos taurus; conditions: cattle, other
# Bos taurus [10] = assay: Toxicity in intramammary dosed Holstein bovine assessed as increase in N-acetyl-beta-D-[…] in milk dosed after morning milking by irritancy test; format: organism-based; conditions: cattle, in vivo, other
# [11] = Drug level in milk of lactating bovine subclinical mastitis model at 2.5X10'6 IU after 24 hrs; format: ADME, Bos taurus; conditions: cattle
# Bos taurus [12] = assay: Toxicity in Holstein bovine assessed as visible local reaction with swollen and tender mammary gland at 5X10'6 IU, intramammary dosed in right forequarter of mammary gland after morning milking by irritancy test; format: organism-based; conditions: cattle, in vivo, other
# Bos taurus [13] = assay: Toxicity in intramammary dosed Holstein bovine assessed as increase in somatic cell count in dosed after morning milking by irritancy test; format: organism-based; conditions: cattle, other
# [14] = Drug level in milk of lactating Holstein bovine mastitis model at 2.5X10'6 IU, intramammary administered once daily for 3 days measured after 24 hrs; format: ADME, Bos taurus; conditions: cattle, other
# Bos taurus [15] = assay: Toxicity in Holstein bovine assessed as decreased milk yeild at 2.5X10'6 IU, intramammary dosed in right hindquarter of mammary gland after morning milking by irritancy test; format: organism-based; conditions: cattle, in vivo, other
# Bos taurus [16] = assay: Toxicity in Holstein bovine assessed as visible local reaction at 2.5X10'6 IU, intramammary dosed in right hindquarter of mammary gland after morning milking by irritancy test; format: organism-based; conditions: cattle, in vivo, other
# Staphylococcus aureus [17] = assay: Sensitivity of Staphylococcus aureus isolated from lactating Holstein bovine subclinical mastitis model at 10 ug/disk after 20 hrs; format: functional; conditions: read-out: IZ
# Staphylococcus aureus [18] = assay: Resistance of Staphylococcus aureus isolated from lactating Holstein bovine subclinical mastitis model at 10 ug/disk after 20 hrs; format: functional
# Staphylococcus aureus [19] = assay: Sensitivity of Staphylococcus aureus isolated from lactating Holstein bovine subclinical mastitis model at 5 ug/disk after 20 hrs; format: functional; conditions: read-out: IZ
# Staphylococcus aureus [20] = assay: Resistance of Staphylococcus aureus isolated from lactating Holstein bovine subclinical mastitis model at 5 ug/disk after 20 hrs; format: functional
# Bos taurus [21] = assay: Antiinflammatory activity in lactating Holstein bovine subclinical mastitis model assessed as reduction in N-acetyl-beta-D-[…] activity at 2.5X10'6 IU, intramammary dosed after morning milking measured after 2 weeks; format: functional
# Staphylococcus = assay: Antibacterial activity against coagulase-negative Staphylococcus infected in lactating Holstein bovine subclinical mastitis model assessed as reduction in intramammary infections at 2.5X10'6 IU, intramammary dosed after morning milking relative to control; format: functional; parameters: scale not given: the % may be the effect or the level left
# Bos taurus [22] = assay: Antiinflammatory activity in lactating Holstein bovine subclinical mastitis model assessed as reduction in N-acetyl-beta-D-[…] activity at 2.5X10'6 IU, intramammary dosed after morning milking measured after 1 week; format: functional
# Streptococcus agalactiae = assay: Antibacterial activity against Streptococcus agalactiae in lactating Holstein bovine subclinical mastitis model assessed as reduction in intramammary infections at 2.5X10'6 IU, intramammary dosed after morning milking relative to control; format: functional; parameters: scale not given: the % may be the effect or the level left
# Staphylococcus aureus [23] = assay: Antibacterial activity against Staphylococcus aureus in lactating Holstein bovine subclinical mastitis model assessed as reduction in intramammary infections at 2.5X10'6 IU, intramammary dosed after morning milking relative to control; format: functional; parameters: scale not given: the % may be the effect or the level left
# Bos taurus [24] = assay: Antiinflammatory activity in lactating Holstein bovine subclinical mastitis model assessed as reduction in number of mammary gland quarters with somatic cell count of >=5X10'5/ml at 2.5X10'6 IU, intramammary dosed after morning milking measured after 1 week; format: functional; parameters: scale not given: the % may be the effect or the level left
# Staphylococcus aureus [25] = assay: Antibacterial activity against Staphylococcus aureus isolated from milk of Holstein bovine subclinical mastitis model after 2 hrs; format: functional
# Bos taurus [26] = assay: Antiinflammatory activity in lactating Holstein bovine subclinical mastitis model assessed as reduction in number of mammary gland quarters with somatic cell count of >=5X10'5/ml at 2.5X10'6 IU, intramammary dosed after morning milking measured after 2 weeks; format: functional; parameters: scale not given: the % may be the effect or the level left
# [27] = Staphylococcus aureus, 20 h, read-out: IZ
compound,measurement,setting,value
Cc1nnc(SCC2=C(C(=O)O)N3C(=O)[C@@H](NC(=O)Cn4cnnn4)[C@H]3SC2)s1 [CEFAZOLIN],zone of inhibition at 30 µg/disc,Staphylococcus aureus [1],≥ 18 mm
same,Activity,Staphylococcus aureus [2],5%
same,zone of inhibition at 30 µg/disc,Staphylococcus aureus [2]; [27],≤ 14 mm
C=C(NC(=O)[C@@H](NC(=O)[C@H](Cc1c[nH]cn1)NC(=O)[C@@H](NC(=O)[C@H](CO)NC(=O)[C@@H]1CS[C@@H](C)[C@H]2NC(=O)[C@H](C)NC(=O)[C@H](NC(=O)[C@H](CCCCN)NC(=O)[C@H](CCSC)NC(=O)[C@H](CC(N)=O)NC(=O)[C@@H]3CS[C@@H](C)[C@@H](NC(=O)[C@H](CCCCN)NC(=O)[C@@H]4CS[C@@H](C)[C@@H](NC(=O)[C@@H]5CSC[C@@H](NC(=O)/C(=C/C)NC(=O)[C@@H](N)[C@@H](C)CC)C(=O)N[C@@H]([C@@H](C)CC)C(=O)NC(=C)C(=O)N[C@@H](CC(C)C)C(=O)N5)C(=O)N5CCC[C@H]5C(=O)NCC(=O)N4)C(=O)NCC(=O)N[C@@H](C)C(=O)N[C@@H](CC(C)C)C(=O)N[C@@H](CCSC)C(=O)NCC(=O)N3)[C@H](C)SC[C@H](NC2=O)C(=O)N[C@@H](CC(N)=O)C(=O)N1)[C@@H](C)CC)C(C)C)C(=O)N[C@@H](CCCCN)C(=O)O,Activity,Bos taurus [3],Non-toxic
same,Activity,Bos taurus [4],Toxic
same,Drug uptake,[5],4.5 IU/ml
same,Activity,Bos taurus [6],Non-toxic
same,Drug uptake,[7],15 IU/ml
same,Activity,Bos taurus [8],Toxic
same,Drug uptake,[9],5.7 IU/ml
same,Activity,Bos taurus [10],Dose-dependent effect
same,Activity,[11],83 IU/ml
same,Activity,Bos taurus [12],Toxic
same,Activity,Bos taurus [13],Dose-dependent effect
same,Drug uptake,[14],75.8 IU/ml
same,Activity,Bos taurus [15],Non-toxic
same,Activity,Bos taurus [16],Non-toxic
CC1(C)S[C@@H]2[C@H](NC(=O)Cc3ccccc3)C(=O)N2[C@H]1C(=O)O [PENICILLIN G],zone of inhibition at 10 µg/disc,Staphylococcus aureus [17],≥ 29 mm
same,Activity,Staphylococcus aureus [18],80%
same,zone of inhibition at 10 µg/disc,Staphylococcus aureus [18]; [27],≤ 28 mm
GENTAMICIN,Activity,Staphylococcus aureus [18],45%
CCn1cc(C(=O)O)c(=O)c2cc(F)c(N3CCNCC3)cc21 [NORFLOXACIN],zone of inhibition at 5 µg/disc,Staphylococcus aureus [19],≥ 17 mm
same,Activity,Staphylococcus aureus [20],75%
same,zone of inhibition at 5 µg/disc,Staphylococcus aureus [20]; [27],≤ 12 mm
C=C(NC(=O)[C@@H](NC(=O)[C@H](Cc1cnc[nH]1)NC(=O)[C@@H](NC(=O)[C@H](CO)NC(=O)[C@@H]1CS[C@@H](C)[C@H]2NC(=O)[C@H](C)NC(=O)[C@H](NC(=O)[C@H](CCCCN)NC(=O)[C@H](CCSC)NC(=O)[C@H](CC(N)=O)NC(=O)[C@@H]3CS[C@@H](C)[C@@H](NC(=O)[C@H](CCCCN)NC(=O)[C@@H]4CS[C@@H](C)[C@@H](NC(=O)[C@@H]5CSC[C@@H](NC(=O)/C(=C/C)NC(=O)[C@@H](N)[C@@H](C)CC)C(=O)N[C@@H]([C@@H](C)CC)C(=O)NC(=C)C(=O)N[C@@H](CC(C)C)C(=O)N5)C(=O)N5CCC[C@H]5C(=O)NCC(=O)N4)C(=O)NCC(=O)N[C@@H](C)C(=O)N[C@@H](CC(C)C)C(=O)N[C@@H](CCSC)C(=O)NCC(=O)N3)[C@H](C)SC[C@H](NC2=O)C(=O)N[C@@H](CC(N)=O)C(=O)N1)[C@@H](C)CC)C(C)C)C(=O)N[C@@H](CCCCN)C(=O)O,Activity,Bos taurus [21],28.9 U/ml
same,Activity,Staphylococcus,58.8%
same,Activity,Bos taurus [22],26.2 U/ml
same,Activity,Streptococcus agalactiae,90.9%
same,Activity,Staphylococcus aureus [23],50%
same,Activity,Bos taurus [24],58.7%
same,MIC,Staphylococcus aureus [25],75.5 IU/ml
same,Activity,Bos taurus [26],70.5%
